Data as given in a melting point compilation (Tetko et al.; mined from patent text by program, amines drawn as free bases though some values may be those of a salt).

Row | Compound | melting point [°C]
1 | COc1ccc2c(c1)c(Cc1cc(=O)n(-c3cnc4ccccc4n3)[nH]1)c(C)n2C(=O)c1ccc(Cl)cc1 | 231 to 233
2 | COC(=O)c1[nH]c(=O)n(C(=O)NCCCN2CCN(c3ccccc3OC)CC2)c1-c1ccc(F)c(F)c1 | 122 to 124
3 | O=C(O)c1c[nH]c(Cl)c1 | 175 to 178
4 | c1ccc(C(c2ccccc2)N2CCN(CCCCCCNc3ccc4ncnn4n3)CC2)cc1 | 130 to 132
5 | CC(C)(C)OC(=O)Nc1ccc(-c2cccc(F)c2)cc1NC(=O)CC(=O)c1cccc(-n2ccnc2)c1 | 70 to 83
6 | CCCCCCCCCCCCCCCCOCC(CN)COC (stereo not given) | 49 to 51
7 | CC(C)(C)OC(=O)N1CCN(c2ccc3c(c2)-n2c(nc4ccccc4c2=O)C3=O)CC1 | 226 to 228
8 | ON=c1cc(-c2cc3cccn3cn2)oc2ccc(OCCOc3ccncc3)cc12 | 198 to 200
9 | COc1cc(N2CCN(Cc3ccccc3)CC2)c2ncccc2c1C | 129 to 133
10 | CNC(=O)NC1(C)CCCc2sccc21 (stereo not given) | 135 to 145
11 | O=C(N[C@@H](Cc1ccc(OCc2ccccc2)cc1)C(=O)O)c1cn2cc(/C=C/c3ccccc3)ccc2n1 | 262 to 263
12 | COc1ccc2c(c1OC)CCC1CNC(=O)C21 (stereo not given) | 185 to 187
13 | [N-]=[N+]=NCCOc1ccc(C(=C(c2ccc(F)cc2)C(F)(F)F)c2ccccc2)cc1 | 100 to 110
14 | O=C(Nc1nccs1)C1=C(O)c2ccsc2S(=O)(=O)C1 | 215 to 216
15 | NCc1c(N)cccc1Oc1ccccc1 | 69 to 71
16 | COc1cc(-n2nc(C#N)cc2-c2ccc(S(C)(=O)=O)cc2)ccc1F | 169 to 171
17 | COc1cc(-c2cn(C3CCCC3)c3ncnc(N)c23)ccc1NS(=O)(=O)c1ccccc1 | 113 to 115
18 | COC(=O)C(C#N)=Cc1cc(OC)c(OC)cc1[N+](=O)[O-] | 162 to 164
19 | COc1ccc(OCC(O)CN2CCC(c3noc4cc(F)ccc34)CC2)cc1 (stereo not given) | 134 to 135
20 | CC(=C1SC(=O)NC1=O)c1ccc(OCCOc2c(-c3ccc(F)cc3)n(C)c3ccccc3c2=O)c(F)c1 | 220 to 222
21 | O=C(O)COc1ccc(Cl)cc1-c1ccc(S(=O)(=O)N2CCOCC2)c(C(F)(F)F)c1 | 208 to 209
22 | CC(=O)NC[C@H]1CN(c2ccc(N3CC(=O)C3)c(F)c2)C(=O)O1 | 192 to 193
23 | CCOC(=O)c1cc(C(=O)c2ccccc2Cl)c(-n2c(C)nnc2CNC(=O)c2cc3ccccc3[nH]2)s1 | 135 to 140

Row | Compound | melting point [°C]
24 | Cc1c(Br)cnc(NC(=O)C2CC2)c1[N+](=O)[O-] | 205
25 | NC(=S)Nc1ccc(C2=NNC(=O)Cc3cc4c(cc32)OCO4)cc1 | 236 to 238
26 | COc1ccc(C2=NN(C3CCCC3)C(=O)[C@H]3CC=CC[C@@H]23)cc1OC1CCCC1 (relative stereo) | 144 to 145
27 | CC(=O)Nc1ccc(C#N)cc1F | 170 to 172
28 | CC1(C)CCc2c(N3CCSCC3)nc3sc4c(NCc5cccnc5)ncnc4c3c2C1 | 257 to 258
29 | CN=C(NS(=O)(=O)N1CCOCC1)C1=NN(c2ccc(Cl)cc2Cl)C(c2ccccc2)C1 (stereo not given) | 161 to 165
30 | COC(=O)c1ccc(Cl)cc1OCC#N | 73 to 76
31 | Cc1nc2ccnc(-c3ccccc3)n2n1 | 68 to 71
32 | COC(=O)c1ccccc1N(C)C(=O)CBr | 80 to 82
33 | OCCCc1ccc2c(c1)Cc1cc(CCCO)ccc1-2 | 160 to 180
34 | CC1CC2C3CCC4=CC(=O)CCC4=C3CCC2(C)C1O (stereo not given) | 146 to 148
35 | O=C1CCC(c2ccc3nc(-c4ccncc4)[nH]c3c2)=NN1 | > 320
36 | CCN(C)C(=O)c1cc(-c2ccccc2)c2sccc2c1 | 93
37 | CCOC(C)c1cc2c(=O)n(NS(C)(=O)=O)c(=O)[nH]c2cc1C(F)(F)F (stereo not given) | 105 to 112
38 | OCc1ccc(OCc2ccccc2)c2c1OCCO2 | 106
39 | O=c1oc2ccc(-c3ccc(F)cc3F)cc2c(=O)n1-c1cccc(C(F)(F)F)c1 | 165 to 166
40 | CC(C)(C)OC(=O)c1cc(Br)cc([N+](=O)[O-])c1 | 77 to 78
41 | O=C(O)c1oc2ccc(Cl)cc2c1-c1ccccc1C(F)(F)F | 71 to 72
42 | Clc1cccc(Cl)c1-c1nc(-c2ccccc2)c(-c2ccccc2)[nH]1 | 125 to 127
43 | CN(C)CCCOc1ccc2c(=O)c3ccc(OCCCN(C)C)cc3oc2c1 | 69 to 70
44 | O=C(NNc1ccc(NC(=S)Nc2ccccc2)cc1)C(F)(F)F | 172 to 174
45 | CCN(CC)c1ccc(C(c2ccc(N(C)C)cc2)c2ccc(N(C)C)cc2)c(O)c1 | 94 to 95
46 | CN1CCN(C(=O)OC2C3=C(SCCS3)C(=O)N2c2ccc(Cl)cn2)CC1 (stereo not given) | 170

Row | Compound | melting point [°C]
47 | Cc1nc(CN2CCc3sc(Nc4ncc(F)cn4)nc3-c3c[nH]nc32)no1 | 245
48 | COc1cccc2c(CBr)coc12 | 91 to 93.5
49 | CN(CCC(=O)C(Cc1ccccc1)NC(=O)c1ccccc1)C(=O)N1CCCC1C(=O)O (stereo not given) | 38 to 68
50 | COc1cc(Nc2c(C#N)cnc3cc(-c4csc(CN5CCN(C)CC5)c4)ccc23)c(Cl)cc1Cl | 206 to 209
51 | CCC12CCC3=C(CCc4cc(OC)ccc43)C1CCC2=O (stereo not given) | 110 to 125
52 | CC1(C)OCC(c2nc3c(C(F)(F)F)cccc3c(O)c2C(=O)Nc2nccs2)O1 (stereo not given) | 250
53 | CCCNC(=O)c1cccnc1Oc1cccnc1 | 55 to 56
54 | CSC(=O)C(=O)c1cc(NC=O)ccn1 | 145 to 148
55 | COc1ccc(-c2cc(C(F)(F)F)n(C)c2-c2ccc(OC)cc2)cc1 | 125 to 126
56 | O=C(CN1C(=O)c2ccccc2C1=O)NNC(=O)c1ncn2c1[C@@H]1CCCN1C(=O)c1sccc1-2 | > 260
57 | COC(=S)NN=C1C(=O)Nc2ccc(C3=NNC(=O)SC3C)cc21 (stereo not given) | 245
58 | CN=C(NC#N)Nc1ccc2c(c1)CCC1(C)CC(=O)NN=C21 (stereo not given) | 269
59 | COC(=O)c1nc(-c2cc(OC)c(Cl)cc2F)cc(NC(C)=O)c1Cl | 180 to 182
60 | CCOC(=S)Nc1cccc(-c2ccnc3c(C(=O)c4cccs4)cnn23)c1 | 209 to 211
61 | CCn1c(=O)c2[nH]c(/C=C/c3cccc(Br)c3)nc2n(CC)c1=O | > 270
62 | Cc1nnc2n1-c1ccc(Cl)cc1N(c1ccccc1)C(=O)C2 | 297 to 298
63 | CC12CCC(O)CC1=CCC1C2CCC2(C)C(n3ncnn3)=CCC12 (stereo not given) | 195 to 198
64 | CNC(=O)C1SCOC(=NO)S1 (stereo not given) | 99 to 102
65 | S=c1nc2ccc(Cl)cn2c(=S)n1-c1ccc(Cl)cn1 | 131 to 132
66 | O=C(c1ccccc1)N1CC2C(C1)C2N(C(=O)c1ccccc1)c1ncc2cc(-c3ccccc3Cl)c(=O)n(C3CC3)c2n1 (stereo not given) | 124 to 130
67 | N#Cc1ccc(O)cc1Cl | 157 to 158

Next, values leading:

Row | melting point [°C] | Compound
68 | 179 to 180 | Cc1oc(-c2ccccc2)nc1COc1cccc(COc2ccc(CC(=O)O)cc2)c1
69 | 135 to 136 | Cc1nn(CCC(C)C)c(C)c1CC(=O)O
70 | 162 | COc1cc(N)c(Cl)cc1C(=O)N[C@H]1CCN(CCCNc2nc3ccccc3s2)C[C@H]1OC (relative stereo)
71 | 229 to 230 | Cc1cc(C)c([N+](=O)[O-])cc1NC(=O)CC#N
72 | 272 to 273 | CCOC(=O)c1cc(O)c2nc(C)n(C)c2c1
73 | 146 to 148 | COC(=O)C1CC(=O)NC(Cc2ccccc2)C1=O (stereo not given)
74 | 86 to 87 | CCOC(=O)C1=C(C)NC(COC(=O)CCN(C)Cc2ccccc2)=C(C(=O)OCC)C1c1ccccc1Cl (stereo not given)
75 | 208 to 209 | COc1ccc2nc(NC(=O)CO)sc2c1
76 | 123 to 124 | C=CCn1c(C)c(C)c2cnnc(CCc3ccc(F)cc3)c21
77 | 253 to 254 | CCOC(=O)c1cn(C)c2cc(-n3cccc3)c(F)cc2c1=O
78 | 124 to 125 | CC(C)(C)c1ccc(C(=O)c2c(N)sc3c2CCN(Cc2ccccc2)C3)cc1
79 | 89 to 92 | CCCCCCCCCOc1ccnc(C(=O)O)c1
80 | 97 to 98 | CCOC(=O)c1cnn2c1c(SC)nc1ccccc12
81 | 108 to 109 | Cc1cc(C)c(N2CCCCC2=O)c(Cl)c1
82 | 128 to 130 | O=c1n(F)nc(SC(Cl)Cl)n1-c1ccccc1
83 | 173 | O=C(O)Cc1ccc(OCc2ccc3ccccc3n2)c(-n2cccc2)c1
84 | 97 to 100 | COc1cc(C(OC(C)=O)C(COC(C)=O)[N+](=O)[O-])ccc1OC(C)=O (stereo not given)

Row | melting point [°C] | Compound
85 | 207 to 209 | COC(=O)c1ccc(Cl)cc1NC(=O)CSc1ccccc1C(=O)O
86 | 125 to 128 | CC(C)(CCC(=O)O)C(=O)Oc1cc(Cl)ccc1Oc1ccc(Cl)cc1Cl
87 | 205 to 206 | COc1c(C)c(Cl)c(C)c(Cl)c1CNC(=O)CCl
88 | 119 to 123 | O=C(O)Cc1cc(Cl)ccc1Oc1ccccc1
89 | 208 | CC(C)C(=O)NCCCC(=O)OC1c2ccccc2C(=O)N1c1ccc2ccc(Cl)nc2n1 (stereo not given)
90 | 119 to 120 | CCSc1cc(C)nc(SCC)c1NC(=O)CSc1nc2ccccc2s1
91 | 175 to 177 | Cc1cccc2c1N(C(=O)OC(C)(C)C)CC(=O)N2
92 | 100 to 102 | CCn1cc(C(=O)NCc2ccc(Cl)cc2)c(=O)c2cc(CN(C)C[C@@H](O)c3ccccc3)sc21
93 | 195 to 197 | CCCCc1[nH]c(=O)c(C#N)cc1C(C)=O
94 | 166 to 168 | COc1ccc(C=CC(=O)O)cc1-c1cc2c(cc1OCCCCCC(=O)O)C(C)(C)CCC2(C)C
95 | 77 to 79 | CCc1cccc(C(C)C)c1N1C(=O)CN(CC)C1=S
96 | 167 to 169 | CC(C)(C)OC(=O)[C@@H](Cc1ccccc1)NC(=O)C1CN(c2ccc(C(N)=S)cc2)C(=O)O1 (stereo not given in full)
97 | 75 to 78 | O=C(O)CCCCCCc1ccc(Cl)cc1
98 | 131 to 133 | CC(NC(=O)OC(C)(C)C)C(=O)Nc1cc(CO)cc(Nc2c3ccccc3nc3ccccc23)c1 (stereo not given)
99 | 112 to 115 | CCCOc1ccc(C)cc1C(N)=O
100 | 250 to 252 | C=CCNc1nc(C)c(C(=O)c2ccc(N)c([N+](=O)[O-])c2)s1
